Reference: ChEMBL document CHEMBL5360674, “Discovery of Naphthol Tetramers from Endolichenic Fungus Daldinia childiae 047219 Based on MS/MS Molecular Networking” (2023)

Experiments:
RAW264.7 [1] = test: Antiinflammatory activity in mouse RAW264.7 cells assessed as reduction in LPS-induced NO production at 10 uM preincubated for 2 hrs followed by LPS stimulation and measured after 24 hrs by Griess reagent-based assay relative to control; assay type: functional; set-up: scale not given: the % may be the effect or the level left; conditions: time 26 hrs
RAW264.7 [2] = test: Antiinflammatory activity in mouse RAW264.7 cells assessed as reduction in LPS-induced NO production at 25 to 50 uM preincubated for 2 hrs followed by LPS stimulation and measured after 24 hrs by Griess reagent-based assay relative to control; assay type: functional; set-up: scale not given: the % may be the effect or the level left; conditions: dose 25-50 µM, time 26 hrs
RAW264.7 [3] = test: Antiinflammatory activity in mouse RAW264.7 cells assessed as reduction in LPS-induced NO production preincubated for 2 hrs followed by LPS stimulation and measured after 24 hrs by Griess reagent-based assay; assay type: functional, cell-based; conditions: dose 5-50 µM, time 26.0 hrs

C[C@@H]1C[C@H]2[C@@H]3CCC4=CC(=O)C=C[C@]4(C)[C@@]3(F)[C@@H](O)C[C@]2(C)[C@@]1(O)C(=O)CO [DEXAMETHASONE]
Activity (RAW264.7 [1]): 50%

COc1cccc2ccc(-c3ccc4cccc(OC)c4c3O)c(O)c12
Activity (RAW264.7 [2]): 50%
Activity (RAW264.7 [3]): Dose-Dependent Effect

COc1cccc2ccc(-c3cc(-c4ccc(O)c5c(OC)cccc45)c4cccc(OC)c4c3O)c(O)c12
Activity (RAW264.7 [2]): 50%
Activity (RAW264.7 [3]): Dose-Dependent Effect

COc1cccc2ccc(-c3ccc(O)c4c(OC)cccc34)c(O)c12
Activity (RAW264.7 [2]): 50%
Activity (RAW264.7 [3]): Dose-Dependent Effect
